Assay results published in patent US8173668B1 (Alcon Research, Ltd., priority 2007, dated 2012).
Like-named read-outs stand apart in the source and are kept apart here.

How the values were obtained:
[1] = Ocular pharmacokinetic study in rabbit eyes, single topical ocular dose; format: in vivo; details: single 300 μg topical ocular dose; for concentration at 0.5 hr: 0.5 hr post-dosing; for concentration at 1 hr: 1.0 hr post-dosing; for concentration at 3 hr: 3 hr post-dosing; for concentration at 6 hr: 6 hr post-dosing
Experimental: In order to better understand the time-course of action of FR-190997, a pharmacokinetic study was performed in rabbit eyes using a single 300 μg topical ocular dose of FR-190997. […] Due to the activation of multiple signaling pathways by BK (see above), and presumably FR-190997, and the convergence and amplification of the down-stream biochemical reactions in the target cells/tissues, it is quite possible that activation of only a few BK receptors by FR-190997 may result in quite profound IOP-lowering.

[2] = target: human cloned B2-receptors (Homo sapiens, UniProt P30411); experiment: HTRF-based assay of endogenous IP1 production in CHO cells; format: cell-based; details: CHO cells expressing human cloned B2-receptors, read-out: EC50, production of endogenous IP1 from PI turnover
cats = experiment: IOP-lowering activity in cats; format: in vivo
Excerpt: Some obvious drawbacks and reasons for the lack of consistent observations noted above are probably related to species differences in the effects of BK on IOP changes and on the fact that BK is a labile peptide that can easily and rapidly be inactivated by kininases and other proteases when it comes into contact with body fluids (Hall, Pharmacol. Ther., 56, 131-190, 1992). Additionally, topical ocular administration of peptides such as BK are confounded by the potential lack of or little bioavailability through the cornea to reach the anterior segment of the eye. […] This is probably related to the attainment of a relevant concentration in the aqueous humor and ciliary body when the compound was administered topical ocularly.

[3] = tested on: conscious ocular hypertensive cynomolgus monkey eyes; experiment: IOP response in lasered (hypertensive) eyes of conscious cynomolgus monkeys, topical ocular; format: in vivo
Experimental: Intraocular pressure (IOP) is determined with an Alcon Pneumatonometer (Alcon Laboratories, Inc., Fort Worth, Tex.) after light corneal anesthesia with 0.1% proparacaine. Right eyes are hypertensive as a result of laser trabeculoplasty. After a baseline IOP measurement, test compound is instilled in the right eyes only of 8-10 cynomolgus monkeys. Vehicle is instilled in the right eyes of 5-6 additional animals. Subsequent IOP measurements are taken at 1, 3, and 6 hours. IOP measurements are also taken on left eyes (normotensive and untreated) at each of these time points. The percent change in IOP from baseline is determined for each animal for every IOP measurement (Sharif et al. J. Ocular Pharmacol. Ther. 17: 305-317, 2001; May et al., J Pharmacol Exp Ther. 306: 301-309, 2003; Sharif et al. Invest. Ophthalmol. Vis. Res. 47: 4001-4010, 2006). Group mean and standard error of the mean (SEM) are calculated for each time point. […] In cases where the compound of invention has poor ocular bioavailability, the compound may need to be administered intracamerally or intravitreally in order to observe the IOP-lowering efficacy.
The IOP-lowering effect was slow to develop but significant IOP reduction was observed even 3 hours post-dosing with maximum ocular hypotension observed 16-48 hours post-dosing (Tables 6-8; FIGS. 3b-5).

[4] = tested on: hypertensive eyes of cynomolgus monkeys; experiment: IOP in lasered (hypertensive) eyes of cynomolgus monkeys, single dose (FIG. 9); format: in vivo; details: IOP at 8, 25 and 27.5 hours
Experimental: Hours 5 and 8 were conscious IOPs. Hours 25 and 27.5 were made under sedation. […] Error bars indicate standard deviations.
Intraocular pressure (IOP) was determined with an Alcon Pneumatonometer (Alcon Laboratories, Inc., Fort Worth, Tex.) after light corneal anesthesia with 0.1% proparacaine. Right eyes were hypertensive as a result of laser trabeculoplasty. After a baseline IOP measurement, FR-190997 was instilled in the right eyes only of 12 cynomolgus monkeys. Vehicle was instilled in the right eyes of 5-6 additional animals. Subsequent IOP measurements were taken at 8, 25, and 27.5 hours. IOP measurements are also taken on left eyes (normotensive and untreated) at each of these time points. The percent change in IOP from baseline was determined for each animal for every IOP measurement (Sharif et al. J. Ocular Pharmacol. Ther. 17: 305-317, 2001; May et al., J Pharmacol Exp Ther. 306: 301-309, 2003; Sharif et al. Invest. Ophthalmol. Vis. Res. 47: 4001-4010, 2006). Group mean and standard error of the mean (SEM) were calculated for each time point.

[5] = aqueous humor, read-out: Aqueous Humor Concentration
[6] = ciliary body, read-out: Ciliary Body Concentration

Chain of human cloned B2-receptors (P30411 whole entry): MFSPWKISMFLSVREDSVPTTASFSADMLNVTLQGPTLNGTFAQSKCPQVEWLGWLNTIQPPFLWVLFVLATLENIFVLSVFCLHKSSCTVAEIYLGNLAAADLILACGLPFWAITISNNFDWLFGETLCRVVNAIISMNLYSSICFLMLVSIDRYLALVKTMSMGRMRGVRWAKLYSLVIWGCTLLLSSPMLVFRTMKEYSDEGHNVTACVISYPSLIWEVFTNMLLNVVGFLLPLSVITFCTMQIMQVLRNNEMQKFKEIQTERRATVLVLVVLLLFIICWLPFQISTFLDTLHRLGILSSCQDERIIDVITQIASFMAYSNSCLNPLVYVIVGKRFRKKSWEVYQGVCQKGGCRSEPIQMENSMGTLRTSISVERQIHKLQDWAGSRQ

concentration at 0.5 hr [1, 5]: 0.9 ± 0.2 nM
concentration at 1 hr [1, 5]: 16 ± 4.7 nM
concentration at 1.5 hr ([1]; aqueous humor, 1.5 hr post-dosing): 3.1 ± 1.1 nM
concentration at 3 hr [1, 5]: 139 ± 114 nM
concentration at 6 hr [1, 5]: 16.6 ± 4.6 nM
concentration at 0.5 hr [1, 6]: 2.75 ± 1.7 nM
concentration at 1 hr [1, 6]: 5.52 ± 1.68 nM
concentration at 3 hr [1, 6]: 26.4 ± 7.9 nM
concentration at 6 hr [1, 6]: 37 ± 10.6 nM
peak aqueous humor level [1]: 139 nM
time of peak aqueous humor level post-dosing [1]: 3 h
EC50 [2]: 21 nM
SMILES: CNC(=O)c1ccc(/C=C/C(=O)NCC(=O)N(C)c2ccc(Cl)c(COc3cccc4c(OCc5ccccn5)cc(C)nc34)c2Cl)cc1 [FR-190997]
ability to lower IOP (cats): unable to lower IOP
% Change in IOP ([3]; Study 1, 30 μg topical ocular, Dose 1/1 hr): −4.6 ± 4.4%
% Change in IOP ([3]; Study 1, 30 μg topical ocular, Dose 1/3 hr): −16.4 ± 5.3%
% Change in IOP ([3]; Study 1, 30 μg topical ocular, Dose 1/6 hr): −34.5 ± 7.5%
% Change in IOP ([3]; Study 1, 30 μg topical ocular, Dose 2/16 hr): −51.6 ± 5.4%
% Change in IOP ([3]; Study 1, 30 μg topical ocular, Dose 2/40 hr): −35.5 ± 6.3%
% Change in IOP ([3]; Study 1, 30 μg topical ocular, Dose 2/132 hr): −3.5 ± 3.7%
% Change in IOP ([3]; Study 2, 3 μg topical ocular, Dose 1/24 hr): −25.9 ± 0.6%
% Change in IOP ([3]; Study 2, 3 μg topical ocular, Dose 1/48 hr): −19.7 ± 1.9%
% Change in IOP ([3]; Study 2, 3 μg topical ocular, Dose 1/120 hr): −7.7 ± 0.8%
% Change in IOP ([3]; Study 3, 10 μg topical ocular, Dose 1/24 hr): −27.2 ± 0.1%
% Change in IOP ([3]; Study 3, 10 μg topical ocular, Dose 1/48 hr): −32.5 ± 2.4%
% Change in IOP ([3]; Study 3, 10 μg topical ocular, Dose 1/120 hr): −9.7 ± 0.6%
% Change in IOP ([3]; Table 8 Study 1, 300 μg topical ocular, Dose 1/1 hr): 2.0 ± 0.6%
% Change in IOP ([3]; Table 8 Study 1, 300 μg topical ocular, Dose 1/3 hr): −6.9 ± 2.9%
% Change in IOP ([3]; Table 8 Study 1, 300 μg topical ocular, Dose 1/6 hr): −24.8 ± 10.3%
% Change in IOP ([3]; Table 8 Study 2, 300 μg topical ocular, Dose 1/1 hr): 6.7 ± 2.1%
% Change in IOP ([3]; Table 8 Study 2, 300 μg topical ocular, Dose 1/3 hr): −7.5 ± 3.1%
% Change in IOP ([3]; Table 8 Study 2, 300 μg topical ocular, Dose 1/6 hr): −15.4 ± 5.7%
% Change in IOP ([3]; Table 8 Study 3, 600 μg topical ocular, Dose 1/1 hr): −0.4 ± 0.2%
% Change in IOP ([3]; Table 8 Study 3, 600 μg topical ocular, Dose 1/3 hr): −10.6 ± 4.4%
% Change in IOP ([3]; Table 8 Study 3, 600 μg topical ocular, Dose 1/6 hr): −27.7 ± 11.3%
% Change in IOP ([3]; Table 8 Study 4, 600 μg topical ocular, Dose 1/1 hr): 4.9 ± 1.6%
% Change in IOP ([3]; Table 8 Study 4, 600 μg topical ocular, Dose 1/3 hr): −4.6 ± 2.0%
% Change in IOP ([3]; Table 8 Study 4, 600 μg topical ocular, Dose 1/6 hr): −18.4 ± 6.9%
% Change in IOP ([3]; Table 8 Study 4, 600 μg topical ocular, Dose 2/16 hr): −37.9 ± 14.1%
% Change in IOP ([3]; Table 8 Study 4, 600 μg topical ocular, Dose 2/40 hr): −31.2 ± 11.7%
% Change in IOP ([3]; Table 8 Study 4, 600 μg topical ocular, Dose 2/64 hr): −16.1 ± 6.1%
lowering of IOP ([3]; topical ocular, 0.03-600 μg/eye): significant dose-dependent lowering of IOP
effect on IOP compared with vehicle [4]: lowered IOP compared with vehicle
